Reference: US20150045425A1, “PELTATIN AND METABOLIC DISORDERS” (NESTEC S.A., priority 2012, published 2015)

System: HeLa cells
Test: Cellular toxicity, standard method, compared to untreated cells
Type: cell-based, human
Settings: up to highest dose used
Procedure: The AC50 (upper part of the insert) and the maximum % activation (lower part of the insert) are given. Cellular toxicity was also assessed with standard method compared to untreated cells and shown in % of toxicity.
An edible plant fraction library was tested for PPARs agonist activity and toxicity. Then relevant plant fractions were further analyzed and bioactive(s) characterized and validated with the same hPPARa, hPPARg or hPPARd reporter bioassays. The reporter bioassay we used in order to identify anti-inflammatory plant properties targeted activation of human PPARs in human HeLa cells (as described in the FIG. 1). All isolated bioactives were tested in a dose response manner in duplicate. Assays were repeated 3-4 times. Shown are mean values obtained. Therefore specificity (for all the three known human PPAR receptors namely PPARa, PPARd and PPARg) and efficacy (full agonist i.e. % maximal activity >100% or partial agonist i.e. % maximal activity <100%) were tested (FIG. 2-4).

Measured: Cellular toxicity (% of toxicity)

COc1cc([C@@H]2c3cc4c(c(O)c3C[C@H]3COC(=O)[C@@H]32)OCO4)cc(OC)c1OC [beta-Peltatin]
no toxicity was observed: FIG. 2, PPARa activation dose-response | FIG. 3, PPARg activation dose-response | FIG. 4, PPARd activation dose-response
